Assay results: paper PMC7513592 (RSC Medicinal Chemistry, 2020)

Key:
HEK293 wt cells = assay: Cadmium toxicity XTT assay, HEK293 wt; type: cell-based, human; conditions: 10 μM or 1 μM, 24 h
YFP-TRPV6 = molecular target: T1, YFP-TRPV6 (Homo sapiens, UniProt Q9H1D0); assay: Whole-cell electrophysiology on YFP-TRPV6 transfected HEK293 cells; type: cell-based; conditions: 10 mM Ca2+, read-out: inhibition of TRPV6 current densities
T1 construct: expressed in transfected cells; host or cells: HEK293 (DSMZ), transient (TransFectin)
T1 sequence (Q9H1D0 41-765 limits assumed): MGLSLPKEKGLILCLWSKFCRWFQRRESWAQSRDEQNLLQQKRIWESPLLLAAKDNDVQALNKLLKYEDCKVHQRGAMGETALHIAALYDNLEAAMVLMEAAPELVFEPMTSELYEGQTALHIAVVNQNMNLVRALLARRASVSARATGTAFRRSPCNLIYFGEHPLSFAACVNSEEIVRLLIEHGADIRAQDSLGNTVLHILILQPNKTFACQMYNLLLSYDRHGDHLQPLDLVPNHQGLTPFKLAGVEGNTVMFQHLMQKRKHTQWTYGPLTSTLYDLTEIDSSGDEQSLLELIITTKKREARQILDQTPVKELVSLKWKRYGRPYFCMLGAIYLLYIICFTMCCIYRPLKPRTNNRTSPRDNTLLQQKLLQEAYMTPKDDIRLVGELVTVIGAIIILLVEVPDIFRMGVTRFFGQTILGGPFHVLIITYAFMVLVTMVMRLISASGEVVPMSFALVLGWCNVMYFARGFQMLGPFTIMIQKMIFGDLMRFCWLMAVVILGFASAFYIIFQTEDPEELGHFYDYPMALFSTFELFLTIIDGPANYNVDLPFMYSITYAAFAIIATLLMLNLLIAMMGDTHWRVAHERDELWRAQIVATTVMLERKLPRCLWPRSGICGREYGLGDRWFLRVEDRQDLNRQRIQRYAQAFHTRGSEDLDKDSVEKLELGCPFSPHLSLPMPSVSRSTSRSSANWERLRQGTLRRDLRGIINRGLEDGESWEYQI
Procedure: Electrophysiological experiments on YFP-TRPV6 transiently transfected HEK293 cells confirmed the activity of 39 on TRPV6. Initially, 10 mM Ca^2+ solution was applied and after the currents reached a plateau, the inhibitors at 0.1 and 10 μM were added. […] In comparison to the previously described 1, the inhibition by 39 occurred at a slower rate and was less pronounced.
HEK293 cells (DSMZ, Germany) were cultivated in DMEM medium containing 10% FCS, 100 μg/ml streptomycin and 100 U/ml penicillin. 24 h before the experiments, a transient transfection with the peYFP-C1 TRPV6 plasmid was performed by utilising TransFectinTM Lipid Reagent (Bio-Rad).
Electrophysiological experiments were conducted at room temperature (20 - 24°C) in the whole-cell configuration with an Ag/AgCl reference electrode. Voltage ramps over a time period of 200 ms from -90 to +90 mV were performed every 5 s with a holding potential of 50 mV. The internal pipette solution consisted of 145 mM Cs-methanesulfonate, 8 mM NaCl, 5 mM MgCl2, 10 mM HEPES and 20 mM EGTA, pH 7.2. The extra cellular solution (10 mM Ca2+) contained: 145 mM NaCl, 5 mM CsCl, 1 mM MgCl 2, 10 mM HEPES, 10 mM glucose and 10 mM CaCl 2, pH 7.4. The leak-correction of the currents were conducted by subtraction of the remaining leak currents after La 3+ bock. The liquid junction potential was determined as 12 mV, though applied voltages were not corrected. […]

[1] = tested on: store-operated calcium channels; assay: SOCE FLIPR assay in MDA-MB-231 cells; type: cell-based, human; conditions: 5 μM
Procedure: Fig. 9 A. Recording of store-operated Ca^2+ entry (SOCE) in MDA-MB-231 cells pretreated for 20 min with either DMSO or SOCE inhibitor GSK-7975A, or 1vs.39. Ca^2+ store-depletion was achieved by 10 min treatment of cells with 1 μM thapsigargin (Tg) in a nominally Ca^2+ free buffer. […] The P-value of the 1vs.39 pretreated cells is indicated above the respective bar as *** for p ≤ 0.001 or non-significant (n.s.) for p > 0.05.
MDA-MB-231 cells were trypsinized and plated at 6 x 10^4 cells/well onto 96-well black plates with clear bottom using 100 μl phenol -red free RPMI medium supplemented with 10% FBS. SOCE activity was measured 16 h later using the previousl y described FLIPR assay.11 After 16 h the medium was replaced with 50 μL of NCF loading buffer and the cells were incubated at 37 °C for 40 min, following which 50 µL of 2X drugs were manually applied (GSK-7975A, 1 or 39) and the cells were incubated for another 20 min.
Stable Ca2+-free baselines were established for 50 seconds before 50 μL of a 3X thapsigargin (Tg) was robotically administered to the cells. Cells were incubated at 37 °C and fluorescence was monitored in the presence of Tg for an additional 10 minutes before administration of 50 μL of 4X CaCl 2. The activity of SOCE was measured by calculating the area under t he curve of the Ca2+ entry traces.

L-type calcium channels = assay: In vitro polypharmacology (Eurofins Cerep): L-type calcium channels; conditions: 10 µM
Procedure: Fig. 8 In vitro polypharmacology for selected targets of 1 (blue diamonds) and 39 (red diamonds). Data are shown for each replicate (n = 2). The data for 1 were extracted from [ref. 17]. The experiments were conducted by Eurofins Cerep SA, France.

With `O=c1ccc(CN2CCN([C@H]3CC[C@@](O)(c4cccc(C(F)(F)F)c4)CC3)CC2)c[nH]1` [compound 39] the “effect on Cd2+ sensitivity” value (HEK293 wt cells) was “no effect”, the inhibition at 0.1 µM (YFP-TRPV6; 0.1 μM) was 30.8 ± 5.1% and the inhibition at 10 µM (YFP-TRPV6; 10 μM) was 88.2 ± 2%. For the same molecule, the “activity on store-operated calcium channels” value [1] was “no detectable activity” and the “activity on L-type calcium channels” value (L-type calcium channels) was “low activity”.
